{
  "source": "patent US11084833B2",
  "about": "“Antibacterial agents against D,D- and L,D-transpeptidases” (priority 2016, dated 2021)",
  "key": {"[1]": {"test_system": "Actinobacter baumannii 6 M-1b", "assay": "Broth dilution MIC", "format": "cell-based", "conditions": "overnight incubation"}, "[2]": {"test_system": "Methicillin Susceptible Staphylococcus aureus", "assay": "Broth dilution MIC", "format": "cell-based", "conditions": "overnight incubation"}, "Klebsiella pneumoniae": {"test_system": "Klebsiella pneumoniae", "assay": "Broth dilution MIC", "format": "cell-based", "conditions": "overnight incubation"}, "[3]": {"test_system": "Methicillin Resistant Staphylococcus aureus", "assay": "Broth dilution MIC", "format": "cell-based", "conditions": "overnight incubation"}, "Pseudomonas aeruginosa": {"test_system": "Pseudomonas aeruginosa", "assay": "Broth dilution MIC", "format": "cell-based", "conditions": "overnight incubation"}, "[4]": {"test_system": "Mycobacterium tuberculosis", "assay": "Broth dilution MIC", "format": "cell-based", "conditions": "336 h, end point reading at 2 weeks"}, "Enterobacter cloacae": {"test_system": "Enterobacter cloacae", "assay": "Broth dilution MIC", "format": "cell-based", "conditions": "overnight incubation"}, "M. tuberculosis H37Rv": {"test_system": "M. tuberculosis H37Rv", "format": "in vivo, BALB/c mice", "conditions": "for gross lung lesions: either alone or in combination with rifampin, end of treatment"}, "[5]": {"test_system": "dehydropepetidase-1 (DHP-1)", "conditions": "cited from earlier work"}, "LdtMt2 [6]": {"molecular_target": "T1, LdtMt2 (Mycobacterium tuberculosis, UniProt I6Y9J2)", "T1 sequence (I6Y9J2 35-408 limits assumed)": "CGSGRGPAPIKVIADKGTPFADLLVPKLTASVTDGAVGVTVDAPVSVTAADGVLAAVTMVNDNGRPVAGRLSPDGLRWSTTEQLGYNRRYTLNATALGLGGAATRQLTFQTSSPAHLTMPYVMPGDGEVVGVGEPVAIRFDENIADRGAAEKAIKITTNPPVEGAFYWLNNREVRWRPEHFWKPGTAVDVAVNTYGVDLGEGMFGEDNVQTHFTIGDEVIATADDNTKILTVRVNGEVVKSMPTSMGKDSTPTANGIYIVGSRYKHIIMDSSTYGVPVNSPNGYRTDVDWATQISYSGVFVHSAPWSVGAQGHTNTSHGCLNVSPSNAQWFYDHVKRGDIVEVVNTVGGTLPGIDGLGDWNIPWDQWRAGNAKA", "assay": "biochemical", "design": "species or system M. tuberculosis", "conditions": "non-linear regression, read-out: kinact/Kapp ratio (converted)"}, "LdtMt2 [7]": {"molecular_target": "T1, LdtMt2", "format": "binding, M. tuberculosis", "conditions": "for acyl-enzyme adduct mass: UPLC-MS"}, "LdtMt2 [8]": {"molecular_target": "T1, LdtMt2", "assay": "Nitrocefin hydrolyzing activity after incubation with β-lactams", "format": "biochemical, M. tuberculosis"}, "[9]": {"molecular_target": "penicillin binding protein DacB2 (Mycobacterium tuberculosis, UniProt I6Y204)", "sequence (I6Y204 23-291)": "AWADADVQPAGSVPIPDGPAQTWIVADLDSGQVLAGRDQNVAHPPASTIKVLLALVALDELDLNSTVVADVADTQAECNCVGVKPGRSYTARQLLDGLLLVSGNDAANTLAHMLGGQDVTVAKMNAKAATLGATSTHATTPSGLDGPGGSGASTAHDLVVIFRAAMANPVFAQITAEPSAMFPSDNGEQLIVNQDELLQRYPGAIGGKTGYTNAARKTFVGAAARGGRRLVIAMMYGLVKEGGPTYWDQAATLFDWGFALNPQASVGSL", "assay": "UPLC-MS analysis of acyl-enzyme adducts"}, "LdtMt1 [10]": {"molecular_target": "T2, LdtMt1 (Mycobacterium tuberculosis, UniProt O53638)", "T2 sequence (O53638 29-251)": "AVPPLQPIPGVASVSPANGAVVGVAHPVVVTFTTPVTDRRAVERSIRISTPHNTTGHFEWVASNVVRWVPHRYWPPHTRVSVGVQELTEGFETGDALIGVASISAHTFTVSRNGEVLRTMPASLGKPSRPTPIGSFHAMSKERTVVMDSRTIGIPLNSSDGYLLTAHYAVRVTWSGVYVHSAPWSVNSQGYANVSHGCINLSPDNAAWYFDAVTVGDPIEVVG", "format": "binding, M. tuberculosis"}, "LdtMab2 [11]": {"test_system": "LdtMab2", "assay": "UPLC-HRMS analysis of L,D-transpeptidase/β-lactam adducts", "format": "binding, Mycobacterium abscessus", "conditions": "over both the non-carbapenems and carbapenems tested"}, "LdtMt2 [12]": {"molecular_target": "T1, LdtMt2", "format": "binding, M. tuberculosis"}, "LdtKp": {"test_system": "LdtKp", "assay": "UPLC-HRMS analysis of L,D-transpeptidase/β-lactam adducts", "format": "binding, Klebsiella pneumoniae", "conditions": "over both the non-carbapenems and carbapenems tested"}, "LdtMab1 [13]": {"test_system": "LdtMab1", "assay": "Isothermal titration calorimetry", "format": "binding, M. abscessus"}, "LdtCl": {"test_system": "LdtCl", "assay": "UPLC-HRMS analysis of L,D-transpeptidase/β-lactam adducts", "format": "binding, Enterobacter cloacae", "conditions": "over both the non-carbapenems and carbapenems tested"}, "LdtPa": {"test_system": "LdtPa", "assay": "UPLC-MS analysis of acyl-enzyme adducts", "format": "binding, Pseudomonas aeruginosa", "conditions": "over both the non-carbapenems and carbapenems tested"}, "LdtMab1 [14]": {"test_system": "LdtMab1", "assay": "UPLC-MS analysis of acyl-enzyme adducts", "format": "binding, Mycobacterium abscessus", "conditions": "over both the non-carbapenems and carbapenems tested"}, "LdtMab2 [15]": {"test_system": "LdtMab2", "format": "binding, M. abscessus"}, "LdtMt1 [16]": {"molecular_target": "T2, LdtMt1", "assay": "UPLC-MS analysis of acyl-enzyme adducts", "format": "binding, M. tuberculosis"}, "[17]": {"conditions": "Enterobacter cloacae, read-out: MIC"}, "[18]": {"conditions": "following incubation with β-lactam"}, "[19]": {"conditions": "equimolar mixture of faropenem, doripenem, biapenem and tebipenem"}},
  "note": "Like-named read-outs stand apart in the source and are kept apart here.",
  "data": [
    {"compound": "C[C@@H](O)C1C(=O)N2C(C(=O)[O-])=C(SC3CN(C4=NCCS4)C3)SC12.[K+]", "note": "(stereo in doubt) [Compound T405, Potassium (5S,6R)-3-((1-(4,5-dihydrothiazol-2-yl)azetidin-3-yl)thio)-6-((R)-1-hydroxyethyl)-7-oxo-4-thia-1-azabicyclo[3.2.0]hept-2-ene-2-carboxylate]", "values": [
      {"measurement": "MIC", "setting": "[1]", "value": "4 to 8", "unit": "mg/L"},
      {"measurement": "MIC", "setting": "[2]", "value": "0.03 to 0.06", "unit": "mg/L"},
      {"measurement": "MIC", "setting": "Klebsiella pneumoniae", "value": "0.125 to 0.25", "unit": "mg/L"},
      {"measurement": "MIC", "setting": "[3]", "value": "0.03 to 0.06", "unit": "mg/L"},
      {"measurement": "MIC", "setting": "Pseudomonas aeruginosa", "value": "4 to 8", "unit": "mg/L"},
      {"measurement": "MIC", "setting": "[4]", "value": "0.5 to 1", "unit": "mg/L"},
      {"measurement": "MIC", "setting": "Enterobacter cloacae; [17]", "value": "0.25 to 0.5", "unit": "mg/L"}
    ]},
    {"compound": "C[C@@H](O)[C@H]1C(=O)N2C(C(=O)[O-])=C(SC3CNC(CNS(N)(=O)=O)C3)S[C@H]12.[K+]", "note": "(stereo in doubt) [Compound T409, Potassium (5R,6S)-6-((R)-1-hydroxyethyl)-7-oxo-3-(((3R,5R)-5-((sulfamoylamino)methyl)pyrrolidin-3-yl)thio)-4-thia-1-azabicyclo[3.2.0]hept-2-ene-2-carboxylate]", "values": [
      {"measurement": "MIC", "setting": "[4]", "value": "0.5 to 1", "unit": "mg/L"}
    ]},
    {"compound": "C[C@@H](O)[C@H]1C(=O)N2C(C(=O)[O-])=C(SC3CNC(C(=O)N(C)C)C3)S[C@H]12.[K+]", "note": "(stereo in doubt) [Compound T410, Potassium (5R,6S)-3-(((3R,5R)-5-(dimethylcarbamoyl)pyrrolidin-3-yl)thio)-6-((R)-1-hydroxyethyl)-7-oxo-4-thia-1-azabicyclo[3.2.0]hept-2-ene-2-carboxylate]", "values": [
      {"measurement": "MIC", "setting": "[1]", "value": "0.5 to 1", "unit": "mg/L"},
      {"measurement": "MIC", "setting": "Klebsiella pneumoniae", "value": "2 to 4", "unit": "mg/L"},
      {"measurement": "MIC", "setting": "Pseudomonas aeruginosa", "value": "0.5 to 1", "unit": "mg/L"},
      {"measurement": "MIC", "setting": "[4]", "value": "8 to 16", "unit": "mg/L"},
      {"measurement": "MIC", "setting": "Enterobacter cloacae; [17]", "value": "1 to 2", "unit": "mg/L"}
    ]},
    {"compound": "CCCSC1=C(C(=O)[O-])N2C(=O)[C@H]([C@@H](C)O)[C@H]2S1.[K+]", "note": "[Compound T406, Potassium (5R,6S)-6-((R)-1-hydroxyethyl)-3-propylthio-7-oxo-4-thia-1-azabicyclo[3.2.0]hept-2-ene-2-carboxylate]", "values": [
      {"measurement": "MIC", "setting": "[1]", "value": "4 to 8", "unit": "mg/L"},
      {"measurement": "MIC", "setting": "Klebsiella pneumoniae", "value": "0.25 to 0.5", "unit": "mg/L"},
      {"measurement": "MIC", "setting": "[4]", "value": "0.5 to 1", "unit": "mg/L"},
      {"measurement": "MIC", "setting": "Enterobacter cloacae; [17]", "value": "4 to 8", "unit": "mg/L"}
    ]},
    {"compound": "C[C@@H](O)[C@H]1C(=O)N2C(C(=O)[O-])=C(SCCO)S[C@H]12.[K+]", "note": "[Compound T407, Potassium (5R,6S)-6-((R)-1-hydroxyethyl)-3-((2-hydroxyethyl)thio)-7-oxo-4-thia-1-azabicyclo[3.2.0]hept-2-ene-2-carboxylate]", "values": [
      {"measurement": "MIC", "setting": "Klebsiella pneumoniae", "value": "8 to 16", "unit": "mg/L"},
      {"measurement": "MIC", "setting": "[4]", "value": "2 to 4", "unit": "mg/L"}
    ]},
    {"compound": "COC(=O)CCSC1=C(C(=O)[O-])N2C(=O)[C@H]([C@@H](C)O)[C@H]2S1.[K+]", "note": "[Compound T408, Potassium (5R,6S)-6-((R)-1-hydroxyethyl)-3-((3-methoxy-3-oxopropyl)thio)-7-oxo-4-thia-1-azabicyclo[3.2.0]hept-2-ene-2-carboxylate]", "values": [
      {"measurement": "MIC", "setting": "[1]", "value": "16 to 32", "unit": "mg/L"},
      {"measurement": "MIC", "setting": "Klebsiella pneumoniae", "value": "8 to 16", "unit": "mg/L"},
      {"measurement": "MIC", "setting": "[4]", "value": "0.5 to 1", "unit": "mg/L"},
      {"measurement": "MIC", "setting": "Enterobacter cloacae; unit as printed for T408", "value": "4-8 g/mL"}
    ]},
    {"compound": "C[C@@H](O)[C@H]1C(=O)N2C(C(=O)[O-])=C(SC3Cn4cnc[n+]4C3)[C@H](C)[C@H]12", "note": "(stereo partly drawn) [biapenem]", "values": [
      {"measurement": "gross lung lesions", "setting": "M. tuberculosis H37Rv", "value": "prevented the development of gross lung lesions"},
      {"measurement": "activity on bacterial load (CFUs) in the lungs", "setting": "M. tuberculosis H37Rv; mouse, in vivo", "value": "bacteriostatic activity"},
      {"measurement": "inactivation by DHP-1", "setting": "[5]", "value": "resistant to inactivation by DHP-1"},
      {"measurement": "kinact/KI", "setting": "LdtMt2 [6]", "value": 3830, "unit": "M⁻¹ s⁻¹"},
      {"measurement": "adduct formation", "setting": "LdtMt2 [7]", "value": "Stable adducts could be detected"},
      {"measurement": "inhibition of nitrocefin hydrolysis", "setting": "LdtMt2 [8]; [18]", "value": "robustly inhibited"}
    ]},
    {"compound": "CC1(C)S[C@@H]2[C@H](NC(=O)C(C(=O)O)c3ccccc3)C(=O)N2[C@H]1C(=O)O", "note": "(stereo partly drawn) [carbenicillin]", "values": [
      {"measurement": "adduct mass", "setting": "[9]; UPLC-MS", "value": "+379 Da"},
      {"measurement": "adduct formation", "setting": "LdtMt2 [7]", "value": "failed to bind"}
    ]},
    {"compound": "CC(=O)OCC1=C(C(=O)O)N2C(=O)[C@@H](NC(=O)Cc3cccs3)[C@H]2SC1", "note": "[cephalothin]", "values": [
      {"measurement": "inhibition of nitrocefin hydrolysis", "setting": "LdtMt2 [8]", "value": "comparable inhibitory activity"}
    ]},
    {"compound": "C[C@@H](O)[C@H]1C(=O)N2C(C(=O)O)=C(S[C@@H]3CN[C@H](CNS(N)(=O)=O)C3)[C@H](C)[C@H]12", "note": "[doripenem]", "values": [
      {"measurement": "acyl-enzyme adduct mass", "setting": "LdtMt2 [7]", "value": 123, "unit": "Da"},
      {"measurement": "inhibition of nitrocefin hydrolysis", "setting": "LdtMt2 [8]; [18]", "value": "robustly inhibited"}
    ]},
    {"compound": "C[C@@H](O)[C@H]1C(=O)N2C(C(=O)O)=C([C@H]3CCCO3)S[C@H]12", "note": "[faropenem]", "values": [
      {"measurement": "gross lung lesions", "setting": "M. tuberculosis H37Rv", "value": "prevented the development of gross lung lesions"},
      {"measurement": "ITC binding", "setting": "LdtMt1 [10]", "value": "single-modality binding"},
      {"measurement": "species detected in competition assay", "setting": "[9]", "value": "the only species detected"},
      {"measurement": "preferential reaction in β-lactam mixtures", "setting": "LdtMab2 [11]", "value": "preferentially reacted with faropenem"},
      {"measurement": "ITC binding", "setting": "LdtMt2 [12]", "value": "single-modality binding"},
      {"measurement": "preferential reaction in β-lactam mixtures", "setting": "LdtKp", "value": "preferentially reacted with faropenem"},
      {"measurement": "acyl-enzyme adduct mass", "setting": "LdtMt2 [7]", "value": "+86 Da"},
      {"measurement": "adduct detected in competition assay", "setting": "LdtMt2 [7]; [19]", "value": "the only adduct detected"},
      {"measurement": "ITC binding", "setting": "LdtMab1 [13]", "value": "Binding"},
      {"measurement": "inhibition of nitrocefin hydrolysis", "setting": "LdtMt2 [8]; [18]", "value": "robustly inhibited"},
      {"measurement": "preferential reaction in β-lactam mixtures", "setting": "LdtCl", "value": "preferentially reacted with faropenem"},
      {"measurement": "preferential reaction in β-lactam mixtures", "setting": "LdtPa", "value": "preferentially reacted with faropenem"},
      {"measurement": "preferential reaction in β-lactam mixtures", "setting": "LdtMab1 [14]", "value": "preferentially reacted with faropenem"},
      {"measurement": "ITC binding", "setting": "LdtMab2 [15]", "value": "Binding"},
      {"measurement": "acyl-enzyme adduct mass", "setting": "LdtMt1 [16]; UPLC-MS", "value": "+86 Da"},
      {"measurement": "adduct detected in competition assay", "setting": "LdtMt1 [16]; [19]", "value": "the only adduct detected"}
    ]},
    {"compound": "C[C@@H](O)[C@H]1C(=O)N2C(C(=O)O)=C(SC3CN(C4=NCCS4)C3)[C@H](C)[C@H]12", "note": "[tebipenem]", "values": [
      {"measurement": "ITC binding", "setting": "LdtMt1 [10]", "value": "single-modality binding"},
      {"measurement": "ITC binding", "setting": "LdtMt2 [12]", "value": "single-modality binding"},
      {"measurement": "ITC binding", "setting": "LdtMab1 [13]", "value": "Binding"},
      {"measurement": "ITC binding", "setting": "LdtMab2 [15]", "value": "Binding"}
    ]}
  ]
}
